Experimental data reported in the supplement of paper PMC10307832.

Key:
Experiment in all cases: relative viability (nuclei count vs DMSO), 5 days (fraction); higher = more cells survive
[1] = compound: CCC1=CN=CN=C1N2CCN(CC2)CC3=NC4=C(N3)C=C(C=C4)C(F)(F)F + Cc1nc(NC(=O)N2CCC[C@H]2C(N)=O)sc1-c1ccnc(C(C)(C)C(F)(F)F)c1 [Alpelisib] (partner 2 µM)
How it was run: (§1)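 After 5 days of treatment, lung cancer cells in 1536-well plates were fixed and stained in a single step (final 0.05% Triton X-100, 1% formaldehyde, 1 ug/ml Hoechst) and their nuclei counted on 4× images. Treatment had been applied by pin tool the day after seeding as one drug alone or as a fixed anchor-drug dose with five library-drug doses (not always all listed) in √10 steps. Relative viability is the nuclei count of treated wells divided by that of vehicle wells, and values are medians of duplicate plates.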

[2] = compound: CCn1c(-c2nonc2N)nc2cnc(Oc3cccc(NC(=O)c4ccc(OCCN5CCOCC5)cc4)c3)cc21 + Cc1cc(Nc2cc(N3CCN(C)CC3)nc(Sc3ccc(NC(=O)C4CC4)cc3)n2)n[nH]1 [Tozasertib] (partner 0.1 µM)
How it was run: as §1

[3] = compound: N=C1NC(=O)/C(=C/c2ccc(O)cc2)S1 [Mirin] + CC1(C)CCC(c2ccc(Cl)cc2)=C(CN2CCN(c3ccc(C(=O)NS(=O)(=O)c4ccc(N[C@H](CCN5CCOCC5)CSc5ccccc5)c(S(=O)(=O)C(F)(F)F)c4)cc3)CC2)C1 [Navitoclax] (partner 0.5 µM)
How it was run: as §1

[4] = compound: N=C1NC(=O)/C(=C/c2ccc(O)cc2)S1 [Mirin] + NC(=O)Nc1cc(-c2cccc(F)c2)sc1C(=O)N[C@H]1CCCNC1 [AZD7762] (partner 0.2 µM)
How it was run: as §1

Row | Cell Line | relative viability ([1]; first compound 0.04 µM) | relative viability ([1]; first compound 0.1265 µM) | relative viability ([1]; first compound 0.4 µM) | relative viability ([1]; first compound 4 µM) | relative viability ([2]; first compound 0.04 µM) | relative viability ([2]; first compound 0.1265 µM) | relative viability ([2]; first compound 0.4 µM) | relative viability ([2]; first compound 1.265 µM) | relative viability ([2]; first compound 4 µM) | relative viability ([3]; first compound 0.25 µM) | relative viability ([3]; first compound 0.7906 µM) | relative viability ([3]; first compound 2.5 µM) | relative viability ([3]; first compound 7.906 µM) | relative viability ([3]; first compound 25 µM) | relative viability ([4]; first compound 0.25 µM) | relative viability ([4]; first compound 0.7906 µM) | relative viability ([4]; first compound 2.5 µM) | relative viability ([4]; first compound 7.906 µM) | relative viability ([4]; first compound 25 µM) | relative viability ([1]; first compound 1.265 µM)
1 | HCC-366 | 0.563 | 0.385 | 0.335 | 0.395 | 0.134 | 0.105 | 0.0696 | 0.0938 | 0.0791 | 1.1 | 1.02 | 1.06 | 1.1 | 0.958 | 0.313 | 0.541 | 0.28 | 0.262 | 0.364 | –
2 | NCI-H2405 | 0.858 | 0.768 | 0.651 | 0.941 | 0.874 | 0.794 | 0.345 | 0.224 | 0.24 | 0.812 | 0.97 | 0.742 | 0.641 | 0.73 | 0.747 | – | 0.798 | 0.734 | 0.599 | –
3 | LXF-289 | 1.01 | 1.01 | 0.972 | 0.974 | 0.221 | 0.198 | 0.195 | 0.104 | 0.0834 | 0.934 | 0.986 | 0.97 | 1.01 | 1.13 | 1.07 | 1.3 | 1.16 | 1.36 | 1.47 | 0.996
4 | NCI-H1793 | 0.618 | 0.553 | 0.557 | 0.637 | 0.332 | 0.473 | 0.341 | 0.307 | 0.293 | 0.55 | 0.36 | 0.395 | 0.656 | 0.371 | 0.468 | – | 0.631 | 0.404 | 0.348 | –
5 | LU99A | 0.524 | 0.527 | 0.53 | 0.585 | 0.293 | 0.295 | 0.295 | 0.233 | 0.199 | 0.706 | 0.677 | 0.92 | 0.742 | 0.542 | 0.351 | 0.349 | 0.355 | 0.294 | 0.28 | 0.568
6 | PC-3 [JPC-3] | 1.06 | 0.94 | 1.02 | 0.96 | 0.94 | 0.866 | 1.03 | 0.861 | 0.77 | 0.826 | 0.813 | 0.812 | 0.869 | 0.904 | 0.88 | 0.782 | 0.896 | 0.843 | 0.989 | 1.04
7 | NCI-H2085 | 1.05 | 0.915 | 0.991 | 0.832 | 0.961 | 0.8 | 0.733 | 0.633 | 0.538 | 0.978 | 1.17 | 1.25 | 1.12 | 1.09 | 0.929 | 1.11 | 0.979 | 1.02 | 0.883 | 0.879
8 | NCI-H2170 | 0.841 | 0.753 | 0.762 | 0.685 | 0.743 | 0.651 | 0.786 | 0.553 | 0.515 | 0.698 | 0.51 | 0.659 | 0.521 | 0.375 | 0.926 | 0.752 | 0.823 | 0.849 | 0.848 | 0.713
9 | HCC-78 | 0.188 | 0.348 | 0.333 | 0.279 | 0.589 | – | – | 0.532 | 0.519 | 0.758 | 0.712 | 0.866 | 0.847 | 0.674 | 0.583 | 0.863 | 0.671 | 0.658 | 0.68 | 0.4
10 | NCI-H1395 | 1.04 | 1.1 | 1.05 | 1.04 | 0.916 | 0.799 | 0.701 | 0.38 | 0.493 | 1.24 | – | 1.12 | 1.04 | 1.09 | 0.402 | – | 0.419 | 0.434 | 0.393 | 0.951
11 | H3255 | 0.742 | 0.721 | 0.711 | 0.65 | 0.758 | 0.5 | 0.706 | 0.377 | 0.325 | 0.499 | 0.59 | 0.628 | 0.513 | 0.47 | 0.899 | 0.958 | 0.943 | 0.738 | 0.867 | 0.67
12 | HCC-15 | 0.954 | 0.877 | 0.925 | 0.889 | 0.451 | 0.403 | 0.417 | 0.278 | 0.258 | 0.755 | 0.689 | 0.762 | 0.713 | 0.52 | 0.589 | 0.973 | 1.33 | 1.28 | 1.18 | 0.892
13 | NCI-H727 | 0.684 | 0.483 | 0.463 | 0.544 | 0.609 | 0.666 | 0.586 | 0.478 | 0.502 | 0.518 | 0.473 | 0.393 | 0.728 | 0.454 | 0.595 | 0.612 | 0.841 | 0.47 | 0.443 | –
14 | HCC-44 | 0.789 | 0.746 | 0.815 | 0.713 | 0.841 | 0.146 | 0.373 | 0.225 | 0.188 | 1 | 0.967 | 0.916 | 0.945 | 0.989 | 1.05 | 1.22 | 1.04 | 1.03 | 1.11 | 0.743
15 | EMC-BAC-2 | 0.748 | 0.697 | 0.726 | 0.774 | 0.231 | 0.283 | 0.249 | 0.165 | 0.155 | 1.16 | 1.29 | 1.17 | 1.08 | 1.17 | 0.977 | 1.1 | 1.26 | 0.92 | 1.05 | 0.723
16 | LK-2 | 1.14 | 1.09 | 0.991 | 1.06 | 0.198 | 0.159 | 0.173 | 0.179 | 0.171 | 0.752 | 0.625 | 0.799 | 0.588 | 0.525 | 0.22 | – | 0.338 | 0.209 | 0.185 | 0.775
